# Results taken from patent US20050059072A1, “Selective modulation of TLR gene expression” (3M Innovative Properties Company, priority 2003, published 2005).
# “Also recorded” adds a separate entry of the source.
# Tests used:
# TLR8 gene = TLR8 gene expression in PBMCs (real-time PCR); type: cell-based, Human; details: in vitro (FIG. 1, FIG. 4)
# Protocol: (§1) For some experiments, Peripheral Blood Mononuclear Cells (PBMCs) were isolated from donors by Ficol gradient centrifugation. For other experiments, leukophoresed mononuclear cells were obtained from AllCells, LLC (Berkeley, Calif.). Monocyte derived macrophages and dendritic cells were prepared from PBMCs using positive selection of CD14+ cells with Miltenyi micro beads (Miltenyi Biotec Inc., Auburn, Calif.). Dendritic cells were differentiated in RPMI 1640 with 10% fetal bovine serum, using 33 ng/mL IL4 and 66 ng/mL GM-CSF, and macrophages were differentiated using 25 ng/mL M-CSF, for seven days at 37° C.
# (§2) IRM compounds were prepared as 1000× stocks in DMSO. PBMCs were diluted to approximately 3.0×10^6 cells per mL in Ex-Vivo 20 media, and 1.0 mL was distributed per well in a 96 deep well plate. Cells were allowed to equilibrate at 37° C. for 1 hour, then IRM compound was added to the culture.
# (§3) At each indicated time point, cells were harvested as follows. PBMCs and dendritic cells were harvested by centrifuging the plate at 1500 RPM, 360 RCF, at 4° C. in a Qiagen SIGMA centrifuge (Qiagen Inc., Valencia, Calif.). The media was then vacuum aspirated and 400 μL of RLT buffer with 1.0% 2-mercaptoethanol was added to each well. Macrophage cultures were harvested by aspiration of the media and direct addition of the RLT buffer to the well. The total RNA was purified using a semi-automated procedure on the Qiagen BioRobot 8000 (Qiagen Inc., Valencia, Calif.), with an incorporated DNase digestion step.
# (§4) Purified total RNA was transferred to Costar 3565 plate and the optical density at 260 nm and 280 nm was read using a Molecular Devices SpectroMax 384 Plus (Molecular Devices Corp., Sunnyvale, Calif.). The RNA was then ethanol precipitated, washed, and the pellet re-suspended in 10 μL of water. cDNA was made with the Invitrogen Superscript II Kit (Invitrogen Corp., Carlsbad, Calif.) using random priming and 2-3 μg of total RNA. PCR was performed using an ABI 7900 (Applied Biosystems Corp., Foster City, Calif.), and the 384 well Microfluidic Card with Taqman™ chemistry, and the reactions were standardized using 2 ng/μL cDNA in the master mix. Cycling conditions were 50° C. for 10 minutes, 95° C. for 2 minutes, then 35 cycles of 95° C. for 30 seconds, and 60° C. for 1 minute. Data was analyzed using SDS 2.0 software (Applied Biosystems, Inc.) using a threshold value of 0.1. The results were imported into Excel and the expression fold changes were calculated using the ΔΔCt method, (User Bulletin #2, PE Applied BioSystems, Inc.). Normalization of signals was performed using the housekeeping gene, GAPDH.
# TLR6 [1] = experiment: TLR6 gene expression in dendritic cells (real-time PCR); type: cell-based, Human
# Protocol: as §1
# (§5) IRM compounds were prepared as 1000× stocks in DMSO. PBMCs were diluted to approximately 3.0×10^6 cells per mL in Ex-Vivo 20 media, and 1.0 mL was distributed per well in a 96 deep well plate. Cells were allowed to equilibrate at 37° C. for 1 hour, then IRM compound was added to the culture. […]
# (§6) Purified total RNA was transferred to Costar 3565 plate and the optical density at 260 nm and 280 nm was read using a Molecular Devices SpectroMax 384 Plus (Molecular Devices Corp., Sunnyvale, Calif.). […] Data was analyzed using SDS 2.0 software (Applied Biosystems, Inc.) using a threshold value of 0.1. The results were imported into Excel and the expression fold changes were calculated using the ΔΔCt method, (User Bulletin #2, PE Applied BioSystems, Inc.). […]
# TLR7 gene [2] = experiment: TLR7 gene expression in macrophages (real-time PCR); type: cell-based, Human; details: macrophages (FIG. 7)
# Protocol: as §1, with “Calif.).” for “Calif.). Dendritic cells were differentiated in RPMI 1640 with 10% fetal bovine serum, using 33 ng/mL IL4 and 66 ng/mL GM-CSF, and macrophages were differentiated using 25 ng/mL M-CSF, for seven days at 37° C.”
# as §2
# (§7) At each indicated time point, cells were harvested as follows. […]
# (§8) The RNA was then ethanol precipitated, washed, and the pellet re-suspended in 10 μL of water. cDNA was made with the Invitrogen Superscript II Kit (Invitrogen Corp., Carlsbad, Calif.) using random priming and 2-3 μg of total RNA. […] Data was analyzed using SDS 2.0 software (Applied Biosystems, Inc.) using a threshold value of 0.1. The results were imported into Excel and the expression fold changes were calculated using the ΔΔCt method, (User Bulletin #2, PE Applied BioSystems, Inc.). […]
# TLR7 [3] = experiment: TLR7 gene expression in dendritic cells (real-time PCR); type: cell-based, Human
# Protocol: as §1, §5, §6
# TLR5 gene = TLR5 gene expression in macrophages (real-time PCR); type: cell-based, Human; details: macrophages (FIG. 6)
# Protocol: as §1, with “Calif.).” for “Calif.). Dendritic cells were differentiated in RPMI 1640 with 10% fetal bovine serum, using 33 ng/mL IL4 and 66 ng/mL GM-CSF, and macrophages were differentiated using 25 ng/mL M-CSF, for seven days at 37° C.”
# as §2, §7, §8
# TLR3 gene [4] = experiment: TLR3 gene expression in PBMCs (real-time PCR); type: cell-based, Human; details: in vitro (FIG. 1, FIG. 2)
# Protocol: as §1, §2, §3, §4
# TLR3 gene [5] = experiment: TLR3 gene expression in macrophages (real-time PCR); type: cell-based, Human; details: macrophages (FIG. 5)
# Protocol: as §1, with “Calif.).” for “Calif.). Dendritic cells were differentiated in RPMI 1640 with 10% fetal bovine serum, using 33 ng/mL IL4 and 66 ng/mL GM-CSF, and macrophages were differentiated using 25 ng/mL M-CSF, for seven days at 37° C.”
# as §2, §3
# as §8, with “RNA. PCR was performed using an ABI 7900 (Applied Biosystems Corp., Foster City, Calif.), and the 384 well Microfluidic Card with Taqman™ chemistry, and the reactions were standardized using 2 ng/μL cDNA in the master mix.” for “RNA.”
# TLR1 = TLR1 expression in actinic keratosis lesion biopsies, phase II study; type: in vivo, human; details: AK lesion, 5% cream (ALDARA) 3 times per week for 4 weeks; highest response time point vs sun-unexposed non-AK skin
# Excerpt: (§9) A phase II, double-blind, vehicle-controlled, randomized, parallel group study included 17 male subjects with histologically confirmed actinic keratosis (AK). Eligible subjects were randomized to receive either IRM5 formulated as a 5% cream (ALDARA, 3M Pharmaceuticals, St. Paul, Minn.) or vehicle cream in a 3:1 ratio. Study subjects had at least five clinically typical, discrete, visible AK lesions within a 25 cm^2 area on the balding scalp that were suitable for shave biopsies.
# (§10) Subjects applied 1 sachet (250 mg) of study cream to the treatment area 3 times per week for 4 weeks. Each dose of study cream was applied prior to normal sleeping hours at approximately the same time on each dosing day and was to remain on the skin for approximately 8 hours.
# (§11) Each subject could have up to 8 shave biopsies performed. Biopsy samples obtained at the treatment initiation visit and all subsequent visits were designated for gene expression analysis. At the treatment initiation visit (T=0), an intact lesion in the treatment area was biopsied (sample series A) to establish a baseline for AK gene expression. […] The sun-unexposed area biopsy was used to establish baseline control for gene expression. […]
# (§12) RNA from each sample was extracted and expression of TLR1, TLR3, TLR6, TLR7, TLR8, TLR9, and TLR10 was analyzed as described in Example 1. […]
# TLR8 = TLR8 expression in actinic keratosis lesion biopsies, phase II study; type: in vivo, human; details: AK lesion, 5% cream (ALDARA) 3 times per week for 4 weeks; highest response time point vs sun-unexposed non-AK skin
# Excerpt: as §9, §10, §11, §12
# TLR6 [6] = experiment: TLR6 expression in actinic keratosis lesion biopsies, phase II study; type: in vivo, human; details: AK lesion, 5% cream (ALDARA) 3 times per week for 4 weeks; highest response time point vs sun-unexposed non-AK skin
# Excerpt: as §9, §10, §11, §12
# TLR3 = TLR3 expression in actinic keratosis lesion biopsies, phase II study; type: in vivo, human; details: AK lesion, 5% cream (ALDARA) 3 times per week for 4 weeks; highest response time point vs sun-unexposed non-AK skin
# Excerpt: as §9, §10, §11, §12
# TLR10 = TLR10 expression in actinic keratosis lesion biopsies, phase II study; type: in vivo, human; details: AK lesion, 5% cream (ALDARA) 3 times per week for 4 weeks; highest response time point vs sun-unexposed non-AK skin
# Excerpt: as §9, §10, §11, §12
# TLR9 = TLR9 expression in actinic keratosis lesion biopsies, phase II study; type: in vivo, human; details: AK lesion, 5% cream (ALDARA) 3 times per week for 4 weeks; highest response time point vs sun-unexposed non-AK skin
# Excerpt: as §9, §10, §11, §12
# TLR7 [7] = experiment: TLR7 expression in actinic keratosis lesion biopsies, phase II study; type: in vivo, human; details: AK lesion, 5% cream (ALDARA) 3 times per week for 4 weeks; highest response time point vs sun-unexposed non-AK skin
# Excerpt: as §9, §10, §11, §12
# TLR7 gene [8] = experiment: TLR7 gene expression in PBMCs (real-time PCR); type: cell-based, Human; details: in vitro (FIG. 1, FIG. 3)
# Protocol: as §1, §5, §6
smiles,measurement,setting,value
"Cc1nc2c(N)nc3cccnc3c2n1CC(C)C [IRM8, 2-methyl-1-(2-methylpropyl)-1H-imidazo[4,5-c][1,5]naphthyridin-4-amine]",modulation of TLR8 gene expression,TLR8 gene,higher and earlier peaks of gene expression
"CCOCc1nc2c(N)nc3c(c2n1CC(C)(C)O)CCCC3 [IRM1, 4-amino-2-(ethoxymethyl)-α,α-dimethyl-6,7,8,9-tetrahydro-1H-imidazo[4,5-c]quinoline-1-ethanol]",modulation of expression from TLR6,TLR6 [1],may downregulate expression
same,modulation of TLR8 gene expression,TLR8 gene,higher and earlier peaks of gene expression
same,modulation of TLR7 gene expression,TLR7 gene [2],downregulated
same,modulation of expression from TLR7,TLR7 [3],may downregulate expression
same,modulation of TLR5 gene expression,TLR5 gene,downregulated
same,modulation of TLR3 gene expression,TLR3 gene [4],upregulates gene expression
same,modulation of TLR3 gene expression,TLR3 gene [5],downregulated; also recorded: downregulates gene expression
"CCCCc1nc2c(N)nc3ccccc3c2n1CCCCNS(C)(=O)=O [IRM3, N-[4-(4-amino-2-butyl-1H-imidazo[4,5-c]quinolin-1-yl)butyl]methanesulfonamide]",modulation of TLR3 gene expression,TLR3 gene [4],upregulate gene expression
same,modulation of TLR3 gene expression,TLR3 gene [5],do not significantly modulate gene expression
"CC(C)Cn1cnc2c(N)nc3ccccc3c21 [IRM5, 1-(2-methylpropyl)-1H-imidazo[4,5-c]quinolin-4-amine]","Median Fold Change - IRM5-treated (IRM-treated/Series C), TLR1",TLR1,2.1 fold
same,"Median Fold Change - IRM5-treated (IRM-treated/Series C), TLR8",TLR8,2.4 fold
same,"Median Fold Change - IRM5-treated (IRM-treated/Series C), TLR6",TLR6 [6],1.9 fold
same,"Median Fold Change - IRM5-treated (IRM-treated/Series C), TLR3",TLR3,1.5 fold
same,modulation of TLR3 gene expression,TLR3 gene [4],upregulate gene expression
same,modulation of TLR3 gene expression,TLR3 gene [5],do not significantly modulate gene expression
same,"Median Fold Change - IRM5-treated (IRM-treated/Series C), TLR10",TLR10,3.6 fold
same,"Median Fold Change - IRM5-treated (IRM-treated/Series C), TLR9",TLR9,15.2 fold
same,"Median Fold Change - IRM5-treated (IRM-treated/Series C), TLR7",TLR7 [7],4.9 fold
"CC(C)Cn1cnc2c(N)nc3cccnc3c21 [IRM7, 1-(2-methylpropyl)-1H-imidazo[4,5-c][1,5]naphthyridin-4-amine]",modulation of TLR7 gene expression,TLR7 gene [8],little effect on gene expression
same,modulation of TLR8 gene expression,TLR8 gene,little effect on gene expression
same,modulation of TLR3 gene expression,TLR3 gene [4],little effect on gene expression
"Cc1nc2c(N)nc3ccccc3c2n1CC(C)(C)O [IRM6, 4-amino-α,α,2-trimethyl-1H-imidazo[4,5-c]quinoline-1-ethanol]",modulation of TLR8 gene expression,TLR8 gene,higher and earlier peaks of gene expression
